From article PMC11200976, “Pitavastatin Calcium Confers Fungicidal Properties to Fluconazole by Inhibiting Ubiquinone Biosynthesis and Generating Reactive Oxygen Species” (Antioxidants, 2024)
Counter-ions that a name gives are not always drawn. Like-named read-outs stand apart in the source and are kept apart here.

Columns and labels:
C. albicans [1] = experiment: Dose–matrix titration assays (synergy, with YPD recovery plates); format: cell-based, Candida albicans
Procedure: The synergistic effects of drugs were conducted following the same procedure as the MIC assays. Specifically, 50 μL of drug A was distributed through two-fold serial dilution across seven plate columns. Subsequently, 50 μL of drug B was distributed in a two-fold serial dilution manner along seven rows of the plate. Furthermore, 100 μL of C. albicans cultures, adjusted to a density of 1 × 10^3 cells/mL, was dispensed into wells containing drugs and one control well devoid of any drugs. Before the 48 h OD600 readings, the plates were subjected to meticulous agitation to ensure the deposition of a representative 2 μL aliquot from each well onto newly prepared YPD recovery plates, thereby facilitating the evaluation of cellular recuperation following drug treatments. The recovery plates were subsequently incubated at a temperature of 30 °C for a duration ranging from 24 to 48 h, after which they were photographed. The experimental procedures were conducted in triplicate to ensure reliability and reproducibility.

[2] = test system: C. albicans SC5314, SN152, cmp1-aid∆/cmp1-aid∆, and PADH1-UPC2 strains; experiment: FLC disk diffusion assays (25 μg FLC disk, 5 μM adjuvant); format: cell-based, Candida albicans; settings: for effect on FLC tolerance in FLC disk diffusion, all four strains: SC5314, SN152, cmp1-aid∆/cmp1-aid∆; for effect on FLC tolerance in FLC disk diffusion, all four strains / effect on FLC tolerance in FLC disk diffusion, PADH1-UPC2 strain: PADH1-UPC2
Procedure: Yeast cells were cultured overnight at a temperature of 30 °C, and the resulting cell suspension was diluted to a concentration of 1 × 10^7 cells/mL in phosphate-buffered saline (PBS). At a concentration of 5 μM, the drugs were individually added to YPD plates for disk assays using a 25 μg FLC disk (6 mm, Liofilchem, Roseto degli Abruzzi, Italy). The plates were then incubated at 30 °C for 48 h. Subsequently, the disk was transferred to a drug-free YPD plate, which was incubated at 30 °C for 24 h and photographed.

C. albicans [3] = experiment: Broth microdilution assay of synergistic lethality with 4 μg/mL FLC (recovery on drug-free YPD); format: cell-based, Candida albicans; settings: for Synergistic lethal concentrations: concentration of the compound that is synergistically lethal with 4 μg/mL FLC, C. albicans, recovery on drug-free YPD
C. albicans [4] = experiment: MIC assays (CLSI M27 broth microdilution); format: cell-based, Candida albicans; settings: Candida albicans
Procedure: The MIC assays for C. albicans were conducted following the broth microdilution protocol outlined by the Clinical and Laboratory Standards Institute (CLSI) protocols (M27, 4th edition). In brief, FDA-approved drugs were diluted in 96-well plates at two-fold the final concentration, with 4 μg/mL FLC. This dilution was combined with the cell suspension with a concentration of 1 × 10^3 cells/mL. The plates were incubated at a temperature of 30 °C for 48 h without agitation.

C. albicans [5] = experiment: Determination of MFC; format: cell-based, Candida albicans; settings: for MFC: Candida albicans
Procedure: The determination of MFC followed the previously described method. In brief, a tested drug at a concentration two times higher than the final concentration was diluted in a two-fold serial dilution manner across ten columns of the plate, with each well containing 100 μL of the drug. Subsequently, 100 μL of C. albicans cultures (1 × 10^4 cells/mL) were transferred into wells with and without any drugs as the control. Following incubation at 30 °C for 48 h, a 200 μL aliquot per well was removed and evenly spread on SDA plates, which were then incubated at 30 °C for 48 h. The MFC value was determined as the lowest drug concentration at which 99.9% of fungal colonies were eradicated compared to the control group.

[6] = test system: C. albicans clinical isolates; experiment: Supra-MIC growth (SMG) of FLC in clinical isolates; format: cell-based, Candida albicans; settings: n = 7 isolates
[7] = test system: Candida glabrata clinical isolates; experiment: Supra-MIC growth (SMG) of FLC in clinical isolates; format: cell-based; settings: n = 4 isolates
[8] = test system: Candida guilliermondii clinical isolates; experiment: Supra-MIC growth (SMG) of FLC in clinical isolates; format: cell-based; settings: n = 7 isolates
C. albicans [9] = experiment: Murine invasive C. albicans infections (C57BL/6 mice); format: in vivo, Candida albicans
Procedure: . Before commencing drug therapy, the mice were inoculated with 200 μL of PBS containing 2 × 10^5 C. albicans cells via the lateral tail vein. […]. The mice were weighed, and their weights were recorded every three days while their survival was monitored daily for 30 days. Two-tailed unpaired t-tests were employed to assess the weight changes. Kaplan–Meier analyses were employed to assess the survival probabilities, while log-rank testing was utilized to determine the statistical significance of the survival curves. In the case of fungal burden analyses, the mice were closely monitored twice daily for any indications of infection and were euthanized humanely upon reaching the predetermined endpoints. Subsequently, each mouse’s spleen, liver, and kidneys were harvested and homogenized in sterile PBS after sacrifice, followed by streaking onto SDA agar plates. Following a 48 h incubation period, the colonies were quantified, and colony-forming units (CFUs) were calculated. For histopathological analysis, kidney tissues from mice infected for 6 or 10 days were procured and fixed in buffered formalin. Subsequently, the tissues were embedded in paraffin, sectioned into 3–4 μm slices, and subjected to PAS staining using established protocols. All experimental procedures involving animals were approved by the Tongji University Animal Care Committee (No.: TJAA00322101).

[10] = Acute toxicity, Up-and-Down procedure (OECD 425), intraperitoneal; format: in vivo; settings: C57BL/6, mouse, in vivo, ip, mice
Procedure: (§1) Following a previously described methodology, the intraperitoneal route was employed in adult mice. In brief, the primary test involved a sequential administration of doses at intervals of at least 48 h, with one mouse being dosed at a time. Initially, a dose below LD50 was administered intraperitoneally to a mouse. If the mouse survived, the subsequent mouse would receive 1.3 times the initial dose. Conversely, if the mouse died, the subsequent mouse would receive a dose decreased by 1.3 times the initial dose. Each mouse was monitored for 48 h before determining the subsequent mouse’s dosage and administration. The experiment was terminated upon five “survive or die” reversals within a consecutive set of six animals tested. Subsequently, the LD50 and its corresponding confidence interval were computed based on the conditions observed in all mice after the experiment.

mice = experiment: as above; format: in vivo
Procedure: as §1

CCCCCCCCN=c1ccn(CCCCCCCCCCn2ccc(=NCCCCCCCC)cc2)cc1 [octenidine dihydrochloride]
concentration that renders FLC fungicidal (no recovery on YPD solid medium) (C. albicans [1]; FLC ≤4 μg/mL, YPD, 30 °C, 48 h): ≤ 3.125 µM
synergistic lethal effects with FLC compared to GdA and CsA (disk diffusion) ([2]; Figure S3): weaker synergistic lethal effects

COCc1c(C(C)C)nc(C(C)C)c(/C=C/[C@@H](O)C[C@@H](O)CC(=O)O)c1-c1ccc(F)cc1 [cerivastatin sodium]
synergistic lethal concentration (converts FLC from fungistatic to fungicidal) (C. albicans [3]; with 4 μg/mL FLC, tested 100 μM to 0.1953 μM, 30 °C, 48 h): ≤ 6.25 µM
concentration that renders FLC fungicidal (no recovery on YPD solid medium) (C. albicans [1]; FLC ≤4 μg/mL, YPD, 30 °C, 48 h): ≤ 3.125 µM
effect on FLC tolerance in FLC disk diffusion, all four strains [2]: made FLC fungicidal

OC(Cn1cncn1)(Cn1cncn1)c1ccc(F)cc1F [FLC, Fluconazole]
MIC (C. albicans [4]; SEC14/sec14△, YPD + 0.5 μM PIT, read-out: MIC of FLC): 1 µg/mL
MIC (C. albicans [4]; SEC14/sec14△, YPD + 1 μM PIT, read-out: MIC of FLC): 0.5 µg/mL
MIC (C. albicans [4]; SEC14/sec14△, YPD, read-out: MIC of FLC): 1 µg/mL
MIC (C. albicans [4]; SN152, YPD, read-out: MIC of FLC): 1 µg/mL
MIC (C. albicans [4]; read-out: MIC of FLC, age3△/age3△, YPD + 0.5 μM PIT): 0.25 µg/mL
MIC (C. albicans [4]; read-out: MIC of FLC, age3△/age3△, YPD + 1 μM PIT): 0.125 µg/mL
MFC (C. albicans [5]; absence of PIT): > 64 µg/mL
MFC (C. albicans [5]; in the presence of PIT (1 μM)): 2 µg/mL
ratio of MFC to MIC of FLC (C. albicans [5]; in the presence of 1 μM PIT): 4
SMG value of FLC ([6]; FLC alone): 0.1203
SMG value of FLC ([6]; in combination with PIT, p = 0.002): 0
SMG value of FLC ([7]; FLC alone): 0.3169
SMG value of FLC ([7]; in combination with PIT, p = 0.0442): 0.0031
SMG value of FLC ([8]; FLC alone): 0.0667
SMG value of FLC ([8]; in combination with PIT, p = 0.0362): 0.0166
kidney fungal burden in cmp1-aidΔ/cmp1-aidΔ infected group compared to cmp1Δ/cmp1Δ infected group (C. albicans [9]; after 1 mg/kg FLC ip for 3 days, 6 or 10 days after infection): notably greater
mortality rate (C. albicans [9]; clinical isolate 283, FLC 4 mg/kg, PIT 3 mg/kg, 30-day observation period): 50%
average weight loss on the 15th day of infection (C. albicans [9]; clinical isolate 283, FLC 4 mg/kg, PIT 3 mg/kg, ten mice per group): 1.16 ± 0.63 g

Cc1ccc(Sc2ccccc2N2CCNCC2)c(C)c1 [vortioxetine]
Synergistic lethal concentrations (C. albicans [3]): 6.25 µM
concentration that renders FLC fungicidal (no recovery on YPD solid medium) (C. albicans [1]; FLC ≤4 μg/mL, YPD, 30 °C, 48 h): ≤ 3.125 µM
effect on FLC tolerance in FLC disk diffusion, all four strains [2]: made FLC fungicidal
LD50 at 48 h [10]: 48.3 mg/kg

Clc1ccc(COC(Cn2ccnc2)c2ccc(Cl)cc2Cl)c(Cl)c1 (stereo not drawn) [miconazole]
effect of azole combined with PIT (C. albicans [1]; combined with PIT, Figure 5B): synergistic lethal effects

N=C(NCCCCCCNC(=N)NC(=N)Nc1ccc(Cl)cc1)NC(=N)Nc1ccc(Cl)cc1.O=C(O)[C@H](O)[C@@H](O)[C@H](O)[C@H](O)CO.O=C(O)[C@H](O)[C@@H](O)[C@H](O)[C@H](O)CO [chlorhexidine digluconate]
concentration that renders FLC fungicidal (no recovery on YPD solid medium) (C. albicans [1]; FLC ≤4 μg/mL, YPD, 30 °C, 48 h): ≤ 3.125 µM
effect on FLC tolerance in FLC disk diffusion, PADH1-UPC2 strain [2]: unsuccessful in reducing FLC tolerance

bleomycin sulfate
concentration that renders FLC fungicidal (no recovery on YPD solid medium) (C. albicans [1]): ≤ 3.125 µM
effect on FLC tolerance in FLC disk diffusion, cmp1-aid∆/cmp1-aid∆ strain ([2]; cmp1-aid∆/cmp1-aid∆): failed to clear the zone of FLC inhibition
LD50 (mice): 21.57 mg/kg

polymyxin B sulfate
Synergistic lethal concentrations (C. albicans [3]): 6.25 µM
concentration that renders FLC fungicidal (no recovery on YPD solid medium) (C. albicans [1]; FLC ≤4 μg/mL, YPD, 30 °C, 48 h): ≤ 3.125 µM
effect on FLC tolerance in FLC disk diffusion, PADH1-UPC2 strain [2]: unsuccessful in reducing FLC tolerance
LD50 (mice): 25 mg/kg

COC1=C2C[C@@H](C)C[C@H](OC)[C@H](O)[C@@H](C)/C=C(\C)[C@H](OC(N)=O)[C@@H](OC)/C=C\C=C(/C)C(=O)NC(=CC1=O)C2=O [GdA, geldanamycin]
effect on FLC tolerance in FLC disk diffusion, all four strains [2]: effectively eradicated the zones of FLC inhibition
LD50 at 48 h [10]: 19 mg/kg
